From patent US20040138207A1, “Antitumor agents” (priority 2001, published 2004)
Values joined by “and” are separate entries in the source; they are usually repeats but may differ in a detail not shown here. Identical values can stand only once. Like-named read-outs stand apart in the source and are kept apart here.

Tests used:
human large bowel cancer = conditions: without exogenous gastrin stimulation, cited from earlier work
[1] = tested on: human large bowel cancer cell COLO320DM; experiment: Example 3 comparison with other gastrin/CCK-B antagonist in COLO320DM bearing mice; format: in vivo; conditions: 10 days
Method: In human large bowel cancer cell COLO320DM bearing mice, the administration of compound A was started when the tumor volume reached to about 120 mm^3 in a similar manner to that described in the Example 2. Its dose per day was 60 or 200 mg/kg, and the administration period was 10 days. As a comparative compound, (3RS)-N-(1-(1-tert-butylcarbonylmethyl)-2,3-dihydro-2-oxo-5-(2-pyridyl)-1H-1,4-benzodiazepin-3-yl)-N′-(3-(dimethylamino)phenyl)urea whose data on inhibitory effect of pentagastrin-stimulus gastric acid secretion in a dog are disclosed as “compound of Example 38” in the aforementioned WO 93/16999 was administered in the same manner at a dose of 200 mg/kg.
The tumor growth inhibition ratio was calculated in a similar manner to that described in Example 2. The tumor growth inhibition ratio when 60 or 200 mg/kg of the compound A was administered was 20 or 27%, respectively.

[2] = tested on: cancer cell proliferation; conditions: group of no gastrin stimulation; cited from earlier work
large bowel cancer = conditions: large bowel cancer-bearing mice; cited from earlier work
[3] = tested on: human pancreatic cancer cell line BxPC-3; experiment: Example 1 antitumor action in BxPC-3 bearing Balb/c nude mice; format: in vivo; conditions: BxPC-3, 200 mg/kg per day p.o. from day after injection, 23 days
Method: (§1) Three to 10×10^6 cells of human pancreatic cancer cell lines (BxPC-3 and PANC-1), human large bowel cancer cell lines (HT29 and COLO320DM) and a human gastric cancer cell line (MKN28) were injected into the dorsal side skin of female Balb/c nude mice. Starting on the next day of the subcutaneous injection of cancer cells, 200 mg/kg per day of the compound A was suspended in 0.5% methylcellulose and orally administered every day by dividing the daily dose into two doses per day. Also, 0.5% methylcellulose solution was administered in the same schedule to the control group. Using calipers, the tumor diameter was measured periodically until the next day of the final administration. The tumor volume and tumor growth inhibition ratio were calculated by the following calculation formulae.
(§2) Tumor volume (mm^3)=½×breadth (mm)^2×length (mm)
(§3) Tumor growth inhibition ratio (%)=[(tumor volume of control group—tumor volume of compound A administration group)/tumor volume of control group]×100

[4] = tested on: human pancreatic cancer cell line PANC-1; experiment: Example 1 antitumor action in PANC-1 bearing Balb/c nude mice; format: in vivo; conditions: PANC-1, 200 mg/kg per day p.o., 49 days
Method: as §1, §2, §3

[5] = tested on: human large bowel cancer cell line HT29; experiment: Example 1 antitumor action in HT29 bearing Balb/c nude mice; format: in vivo; conditions: HT29, 200 mg/kg per day p.o., 27 days
Method: as §1, §2, §3

[6] = tested on: human large bowel cancer cell line COLO320DM; experiment: Example 1 antitumor action in COLO320DM bearing Balb/c nude mice; format: in vivo; conditions: 200 mg/kg per day p.o., 21 days
Method: as §1, §2, §3

[7] = tested on: human gastric cancer cell line MKN28; experiment: Example 1 antitumor action in MKN28 bearing Balb/c nude mice; format: in vivo; conditions: MKN28, 200 mg/kg per day p.o., 20 days
Method: as §1, §2, §3

[8] = tested on: human pancreatic cancer cell BxPC-3; experiment: Example 2 antitumor action in BxPC-3 cancer-bearing mice (established tumor); format: in vivo; conditions: 21 days, start at about 120 mm^3
Method: (§4) In human pancreatic cancer cell BxPC-3 bearing mice, administration of the compound A was started when the tumor volume reached to about 120 mm^3 in a similar manner to that described in the test example 1. Its dose per day was 200 or 600 mg/kg, and the administration period was 21 days.
The tumor growth inhibition ratio was calculated by the following calculation formula.
Tumor growth inhibition ratio (%)={[(tumor volume of control group on the administration-finished day−tumor volume of control group before commencement of the administration)−(tumor volume of compound A-treated group on the administration-finished day−tumor volume of compound A-treated group before commencement of the administration)]/(tumor volume of control group on the administration-finished day−tumor volume of control group before commencement of the administration)}×100

[9] = Example 2 toxicity (body weight, side effects) in BxPC-3 cancer-bearing mice; format: in vivo
Method: as §4

[10] = tested on: human pancreatic cancer cell line BxPC-3; experiment: Example 4 comparison with gemcitabine, tumor growth in BxPC-3 bearing nude mice; format: in vivo
Method: (§5) A total of 3×10^6 cells of a human pancreatic cancer cell line BxPC-3 was injected into the dorsal side skin of female Balb/c nude mice (6 weeks of age). When the tumor volume reached to about 110 mm^3, 60, 200 or 600 mg/kg per day of the compound A was orally administered in a similar manner to that described in Example 2, every day by dividing the daily dose into two doses per day (n=5). Also, 0.5% methylcellulose solution was administered in the same schedule to the control group. The administration period was 14 days.
(§6) As a comparative compound, a known pancreatic cancer therapeutic agent Gemcitabine (GEM) was used in the same test. GEM was intravenously administered at a dose of 60, 120 or 240 mg/kg per day, once in three days. Physiological saline was administered to the control group in the same schedule.
The tumor growth inhibition ratio was calculated by same calculation formula in Example 2.

[11] = tested on: gastrin-stimulated gastric acid secretion; conditions: dog, 0.01 mg/kg oral administration; cited from earlier work
[12] = Example 4 side effect parameters in BxPC-3 bearing nude mice; format: in vivo
Method: as §5, §6
The tumor growth inhibition ratio in the compound A-treated group is shown in Table 3, and that in the GEM-treated group in Table 4, together with various parameters which indicate the degree of side effects.

[13] = daily dose of 600 mg/kg continuously for 21 days

Question: For `C[C@](Cc1c[nH]c2ccccc12)(NC(=O)OC1[C@H]2C[C@@H]3C[C@@H](C[C@H]1C3)C2)C(=O)NC[C@H](NC(=O)CCC(=O)O)c1ccccc1` (stereo partly drawn) [CI-988], which growth inhibitory action (human large bowel cancer; 25 mg/kg oral) is on record?
Answer: showed a growth inhibitory action

Question: And the growth inhibitory action (human large bowel cancer; 50 mg/kg oral)?
Answer: not found

Question: With `CN(C)c1cccc(NC(=O)NC2N=C(c3ccccn3)c3ccccc3N(CC(=O)C(C)(C)C)C2=O)c1` (racemic) [comparative compound, (3RS)-N-(1-(1-tert-butylcarbonylmethyl)-2,3-dihydro-2-oxo-5-(2-pyridyl)-1H-1,4-benzodiazepin-3-yl)-N′-(3-(dimethylamino)phenyl)urea, reference compound] as the compound, how does the “tumor growth inhibitory action” value ([1]; 200 mg/kg) read?
Answer: did not show

Question: With `Cc1cccc(NC(=O)N[C@@H]2N=C(c3ccccc3)c3ccccc3N(C)C2=O)c1` [L-365260] as the compound, how does the “inhibition of cancer cell proliferation” value [2] read?
Answer: not found

Question: For `CCCN(CCC)C(=O)C(CCC(=O)O)NC(=O)c1ccccc1` (stereo not drawn) [proglumide], which antitumor effect (large bowel cancer) is on record?
Answer: appropriate antitumor effect

Question: What about the “mortality rate of mice” value (large bowel cancer) of the same compound?
Answer: reduced

Question: For `CNc1cccc(NC(=O)N[C@@H]2N=C(c3ccccn3)c3ccccc3N(CC(=O)C(C)(C)C)C2=O)c1` [compound A, (3R)-N-(1-(1-tert-butylcarbonylmethyl)-2,3-dihydro-2-oxo-5-(2-pyridyl)-1H-1,4-benzodiazepin-3-yl)-N′-(3-(methylamino)phenyl)urea], which “Tumor growth inhibition ratio” value [3] is on record?
Answer: 65%

Question: And the “Tumor growth inhibition ratio” value [4]?
Answer: 52%

Question: What about the “Tumor growth inhibition ratio” value [5] of the same compound?
Answer: 36%

Question: And the “Tumor growth inhibition ratio” value [6]?
Answer: 47%

Question: And the “Tumor growth inhibition ratio” value [7]?
Answer: 31%

Question: What about the “Tumor growth inhibition ratio” value ([8]; 200 mg/kg per day) of the same compound?
Answer: 48%

Question: And the “Tumor growth inhibition ratio” value ([8]; 600 mg/kg per day)?
Answer: 79%

Question: What about the Body weight ([9]; 200 mg/kg dose group, on the 21st day) of the same compound?
Answer: 23.8 ± 0.5 g

Question: And the Body weight ([9]; 200 mg/kg dose group, the day before commencement of administration)?
Answer: 22.1 ± 0.5 g

Question: What about the Body weight ([9]; 600 mg/kg dose group, on the 21st day) of the same compound?
Answer: 23.3 ± 0.7 g

Question: What about the Body weight ([9]; 600 mg/kg dose group, the day before commencement of administration) of the same compound?
Answer: 21.4 ± 0.6 g

Question: What about the “influence on the mouse body weight” value [9, 13] of the same compound?
Answer: did not exert influence

Question: And the side effects [9, 13]?
Answer: not observed

Question: And the “Tumor growth inhibition ratio” value ([1]; 60 mg/kg per day)?
Answer: 20%

Question: What about the “Tumor growth inhibition ratio” value ([1]; 200 mg/kg per day) of the same compound?
Answer: 27%

Question: And the “Tumor growth inhibition ratio” value ([10]; 60 mg/kg p.o. per day, 14 days)?
Answer: 19.3 ± 23.6%

Question: And the “Tumor growth inhibition ratio” value ([10]; 200 mg/kg p.o. per day, 14 days)?
Answer: 25.1%

Question: What about the “Tumor growth inhibition ratio” value ([10]; 200 mg/kg p.o. per day, 14 days, listed as Compound A) of the same compound?
Answer: 25.1 ± 21.1%

Question: What about the “Tumor growth inhibition ratio” value ([10]; 600 mg/kg p.o. per day, 14 days) of the same compound?
Answer: 78.2 ± 28.3%

Question: What about the “inhibition of gastrin-stimulated gastric acid secretion” value [11] of the same compound?
Answer: 50%

Question: With `Nc1ccn([C@@H]2O[C@H](CO)[C@@H](O)C2(F)F)c(=O)n1` [GEM, Gemcitabine, reference compound] as the compound, how does the “Tumor growth inhibition ratio” value ([10]; 60 mg/kg i.v. once in three days) read?
Answer: 22.2% and 22.2 ± 26.7%

Question: And the “Tumor growth inhibition ratio” value ([10]; 120 mg/kg i.v. once in three days)?
Answer: 80.2% and 80.2 ± 20.1%

Question: And the dead cases ([12]; 240 mg/kg i.v. once in three days, n=5)?
Answer: 3/5 dead cases

Question: What about the MTD at 14 days ([12]; female, Balb/c nude, mouse, in vivo, iv, i.v. once in three days, BxPC-3 bearing mice, read-out: MTD (maximum tolerated dose)) of the same compound?
Answer: 120 mg/kg
